Assay results as given in US10787696B2 (priority 2009, dated 2020).

Columns and labels:
Assay type in all cases: cell-based
[1] = system: synthetic promoter G5TO4 (tetracycline transcription silencer tTS); conditions: 1 μg/ml tetracycline; culture medium two days post-transfection; HeLa-tTS
[2] = system: synthetic promoter G5TO4 (tetracycline transcription silencer tTS); conditions: clone #32, 1 μg/ml tetracycline
[3] = system: synthetic promoter G5TO4 (tetracycline transcription silencer tTS)

CN(C)[C@@H]1C(O)=C(C(N)=O)C(=O)[C@@]2(O)C(O)=C3C(=O)c4c(O)cccc4[C@@](C)(O)[C@H]3C[C@@H]12 [tetracycline]
relative light units (RLU) with tetracycline vs. absence of tetracycline [1]: 16 fold
reporter gene activation when tetracycline was added to the culture medium [2]: more than 200 fold
luciferase activity in medium of cells treated with tetracycline vs. not treated ([2]; 96-well microplate, one day): 200 fold
reporter activation by the addition of tetracycline [3]: more than 14 fold
